Measured values from publication PMC4976923, “Potent Allosteric Dengue Virus NS5 Polymerase Inhibitors: Mechanism of Action and Resistance Profiling” (PLoS Pathogens, 2016).
Read-outs that look alike come from different tables or passages of the source.

Assays:
[1] = tested on: DENV2-NGC Ren-LUC Replicon in HuH-7; experiment: Stable HuH-7 DENV2-NGC renilla luciferase replicon assay; type: cell-based; settings: Dengue virus, DENV2, Huh-7, 48 h, read-out: HuH-7 DENV Replicon, DENV2, EC50
DENV3 FL NS5 = target: T1, DENV3 FL NS5 (Dengue virus type 3, UniProt Q6YMS4); experiment: DENV3 FL NS5 de novo initiation FAPA assay; type: biochemical; settings: one experiment; read-out: DENV FL NS5 de novo initiation FAPA, IC50, DENV3
T1 construct: 100 nM DENV FL NS5 protein was added; made in house
Method: (§1) DENV1-4 FL NS5 dnI assays were performed as described previously. Briefly, compounds from 0–20 or -100 μM concentrations are two-fold serially diluted into 384-well black opaque plates (Corning Costar), after which 100 nM DENV FL NS5 protein was added and the plates incubated at RT for 20 min. RNA and ATTO-CTP, ATP, GTP and UTP were then added and the plates incubated for another 120 min. Reactions were stopped with buffer containing 25 nM CIP, re- incubated at RT for 60 min and read on a Tecan Safire II microplate reader. For order-of-addition experiments, DENV4 FL NS5 was incubated for one hour at RT with RNA, ATP, and GTP or RNA, ATP, GTP and ATTO-CTP, followed by exposure to serially diluted compounds for 20 min at RT. The missing components (ATTO-CTP and UTP or UTP alone) were added and the reactions continued for 120 min after which STOP buffer was added as before. All datapoints were performed in duplicate wells. Each compound was tested at least twice.
(§2) 2 Co mpound testing with DENV dn I FAPA assays. Final dn I assa y reaction mixtures
(§3) 3 contained 100 nM DENV 5 ´UTR-L-3´UTR IVT RNA, 20 µ M ATP, 20 µM GTP, 20 µM
(§4) 4 UTP, 5 µM ATTO -CTP, and 100 nM of DENV FL NS5 protein in 15 µl in assa y buffer
(§5) 5 comprising 50 mM Tris/ HCl, pH 7.5, 10 mM KCl, 1 mM MgCl2, 0.3 mM MnCl2 (DENV2
(§6) 6 and 4) or 1 mM MnCl 2 (DENV1 and 3), 0.001% Triton- X-100 and 10 µ M cystein e [ 1] . To
(§7) 7 perform dose-respons e inhibition measurements, compounds from 0- 20 or - 100 µM
(§8) 8 concentr ations are two -fold seriall y diluted into 384-well black opaqu e plat es (Corning
(§9) 9 Costar), after which 100 nM DENV FL NS5 protein was added into resp ect ive wells. The
(§10) 10 plates wer e sealed, b riefl y shak en and centrif uged at 1500 rpm for 30 sec and incubated at RT
(§11) 11 for 15 min. Thereafter,RNA and ATTO -CTP, ATP, GTP and UTP were added to the wells to
(§12) 12 start the reactions. The pl ates wer e re-seal ed, shaken and centrifuged as before, followed b y
(§13) 13 incubation RT for 120 min. Reactions were stopped by addition of 10 µl of 2.5X STOP
(§14) 14 buffer (200 mM NaCl, 25 mM MgCl2, 1.5M DEA, pH 10; Promega) with 25 nM calf
(§15) 15 intestinal phosphatase (CIP), re- incubation at RT for 60 min and read on a Tecan Safire II
(§16) 16 microplate reader. For o r der-of-addition experiments, DENV4 FL NS5 was incubated for one
(§17) 17 hour at RT with RNA, ATP, and GTP or RNA, ATP, GTP and ATTO-CTP, followed by
(§18) 18 exposure to seriall y dilut ed compounds for 20 mi n at RT. The missing components (ATTO-
(§19) 19 CTP and UTP or UTP alone) were added and the reactions continued for 120 min after which
(§20) 20 STOP buffer was added as before. All datapoints were performed in duplicate wells. Each
(§21) 21 compound was tested at l east twice.
(§22) 23 Compound testing in DENV1-4 infected cells by high content imaging. Approximatel y 7
(§23) 24 × 10^3 A549 cells per well were s eeded into 384-well plates in Ham’s F-12K medium

in vitro = type: cell-based; settings: human, HuH-7 (DENV2 replicon cells); 48 hr; ATP levels
Method: A549, BHK-21 and Huh7 cells bearing stable DENV2 sub-genomic replicon or transiently electroporated DENV2-NGC replicon or infectious virus cDNAs were seeded into 384-well microplate (3,000 cells per well). After over-night incubation at 37°C with 5% CO2, the cells were treated with 2-fold serially diluted compounds, starting from 20 or 50 μM. At 48 hr of post-incubation, renilla luciferase activities were measured with the ViviRen live-cell substrate (Promega, USA) according to the manufacturer’s protocol. CellTiter-Glo reagent (Promega, USA) was then added to determine cytotoxic effects of compounds. For the HCV replicon assay, Huh-7.5 cells harboring the HCV replicon were seeded into a 96-well microplate (20,000 cells per well). At 48 hr after compound treatment, cells were assayed for firefly luciferase activity by using a Bright-Glo luciferase assay (Promega, USA). NITD-008, a nucleoside inhibitor of DENV and HCV was added as a control.

[2] = target: DENV4 RdRp domain (aa 268–900) (Dengue virus type 4, UniProt P09866); experiment: Thermo-denaturation assay, recombinant RdRp domain; type: binding; settings: +50 μM compound; DMSO control 50
Method: (§24) Site-directed alanine mutations of DENV4 FL NS5 cDNA were performed using pET28-D4-MY01-22713 NS5FL [23] as a template, according to the manufacturer’s protocol (Stratagene, USA). Protein expressions of DENV1-4 FL NS5 and their stability analyses by thermo-fluorescence were performed as described previously. DENV de novo initiation and elongation FAPA assays were earlier described. […]
(§25) 6 Fi g .5. Ef fects of N -pocket compounds on DENV pol ymerase thermo-stability. Melting
(§26) 7 temperatur e (Tm) w as ass essed b y thermo-d enatur ation in presence of the S YPRO Oran ge
(§27) 8 dye as described in Materials and Methods. (A-F) Representative meltin g curves of DEN V4
(§28) 10 inhibitors or 5 % DMSO control. […]
(§29) 16 controls treated with DMSO.

DENV2 FL NS5 = target: T2, DENV2 FL NS5 (Dengue virus type 2, UniProt P14340); experiment: DENV2 FL NS5 de novo initiation FAPA assay; type: biochemical; settings: one experiment; read-out: DENV FL NS5 de novo initiation FAPA, IC50, DENV2
T2 construct: made in house
Method: as §1, with “Reactions were stopped with buffer containing 25 nM CIP, re- incubated at RT for 60 min and read on a Tecan Safire II microplate reader.” left out
as §2, §3, §4, §5, §6, §7, §8, §9, §10, §11, §12
(§30) 13 incubation RT for 120 min.
as §15, §16, §17, §18, §19, §20, §21, §22, §23

DENV4 FL NS5 [3] = target: T3, DENV4 FL NS5 (Dengue virus type 4, UniProt P09866); type: biochemical; settings: for mode of inhibition with respect to viral RNA substrate / mode of inhibition with respect to GTP: Lineweaver-Burk plots; for mode of inhibition with respect to viral RNA substrate: 0–500 nM RNA; for mode of inhibition with respect to GTP: 0–50 μM GTP
T3 construct: 100 nM DENV FL NS5 protein was added; made in house

DENV4 FL NS5 [4] = experiment: Thermo-denaturation assay, recombinant FL NS5; type: binding; settings: +50 μM compound; DMSO control 42.5
Method: as §24, §25, §26, §27, §28, §29

DENV1 FL NS5 = target: T4, DENV1 FL NS5 (Dengue virus type 1, UniProt P17763); experiment: DENV1 FL NS5 de novo initiation FAPA assay; type: biochemical; settings: one experiment; read-out: DENV FL NS5 de novo initiation FAPA, IC50, DENV1
T4 construct: 100 nM DENV FL NS5 protein was added; made in house
Method: as §1, §2, §3, §4, §5, §6, §7, §8, §9, §10, §11, §12, §13, §14, §15, §16, §17, §18, §19, §20, §21, §22, §23

DENV4 FL NS5 [5] = target: T3, DENV4 FL NS5; experiment: biochemical
Method: as §1, with “Reactions were stopped with buffer containing 25 nM CIP, re- incubated at RT for 60 min and read on a Tecan Safire II microplate reader.” left out
as §2, §3, §4, §5, §6, §7, §8, §9, §10, §11, §12, §30, §15, §16, §17, §18, §19, §20
21 compound was tested at l east twice. […]

DENV4 FL NS5 [6] = target: T3, DENV4 FL NS5; settings: Enzyme + compound 20 min, then ssRNA and nucleotides, 2 hr; read-out: DENV FL NS5 de novo initiation FAPA, IC50, DENV4; cited from earlier work
DENV4 FL NS5 S797A = target: T5, DENV4 FL NS5 S797A (Dengue virus type 4, UniProt P09866, S3284A); type: biochemical; settings: dnI FAPA; one experiment
T5 construct: Site-directed alanine mutations of DENV4 FL NS5 cDNA; made in house

DENV4 FL NS5 W803A = target: T6, DENV4 FL NS5 W803A (Dengue virus type 4, UniProt P09866, W3291A); type: biochemical; settings: dnI FAPA; one experiment
T6 construct: Site-directed alanine mutations of DENV4 FL NS5 cDNA; made in house

DENV4 FL NS5 [7] = target: T3, DENV4 FL NS5; experiment: biochemical; settings: Enzyme + compound; averaged from >3 experiments; read-out: Elongation IC50
[8] = representative dose-response curve, read-out: IC50, best-fit value of representative curve (Fig 1A in S1 Text)
[9] = Enzyme + compound 20 min, then ssRNA and nucleotides, 2 hr, averaged from ≥3 experiments, read-out: DENV FL NS5 de novo initiation FAPA, IC50, DENV4

Row | Compound | EC50 [1] | IC50 (DENV3 FL NS5) | CC50 (in vitro) | Protein melting temperature Tm with compound, RdRp domain [2] | IC50 (DENV2 FL NS5) | mode of inhibition with respect to viral RNA substrate (DENV4 FL NS5 [3]) | mode of inhibition with respect to GTP (DENV4 FL NS5 [3]) | mode of inhibition at high GTP concentrations (DENV4 FL NS5 [3]; high GTP concentrations) | Protein melting temperature Tm with compound, FL NS5 (DENV4 FL NS5 [4]) | IC50 (DENV1 FL NS5) | IC50 (DENV4 FL NS5 [5]; [8]) | IC50 (DENV4 FL NS5 [6]) | IC50 (DENV4 FL NS5 [5]; [9]) | S797A IC50 (DENV4 FL NS5 S797A) | IC50 (DENV4 FL NS5 [5]; compound added to enzyme-dsRNA complex, read-out: de novo IC50, order of addition: [Enzyme + RNA+ ATP+GTP+ATTO-CTP] + compound) | IC50 (DENV4 FL NS5 [5]; compound added to enzyme-dsRNA complex, read-out: de novo IC50, order of addition: [Enzyme + RNA+ATP+GTP] + compound) | IC50 (DENV4 FL NS5 [5]; compound added to pre-formed enzyme-ssRNA complex, read-out: de novo IC50, order of addition: [Enzyme + RNA] + compound) | W803A IC50 (DENV4 FL NS5 W803A) | IC50 (DENV4 FL NS5 [7])
1 | O=C(O)Cc1cc(CC(=O)O)cc(-c2ccc(C#CCO)s2)c1 [Compound 15] | > 100 µM | 0.46 µM | > 100 µM | 65 °C | 2.2 µM | uncompetitive | uncompetitive inhibition | non-competitive mode of inhibition | 52 °C | 0.3 µM |  |  |  |  |  |  |  |  | 
2 | COc1cc(OC)c(-c2ccc(C#CCO)s2)cc1C(=O)NS(=O)(=O)c1ccccc1 [Compound 26] | 21 µM | 0.057 µM | > 100 µM |  | 0.145 µM |  |  |  |  | 0.075 µM | 0.115 µM | 0.251 ± 0.129 µM |  |  |  |  |  |  | 
3 | COc1ccc(CC(=O)O)cc1-c1ccccc1 [Compound 3] | > 100 µM | 796 µM | > 100 µM |  | 769 µM |  |  |  |  | 769 µM | 788 µM | 733 ± 10.6 µM |  |  |  |  |  |  | 
4 | COc1cc(C)c(C(=O)NS(=O)(=O)c2ccccc2)cc1-c1ccc(C#CCO)s1 [Compound 25] | 11.4 µM | 0.04 µM | > 100 µM |  | 0.106 µM |  |  |  |  | 0.033 µM | 0.281 µM | 0.165 ± 0.108 µM |  |  |  |  |  |  | 
5 | COc1ccc(CC(=O)O)cc1-c1ccc(Cl)s1 [Compound 3i] | > 100 µM | 66.8 µM | > 100 µM |  | 37.2 µM |  |  |  |  | 46.6 µM | 30.9 µM |  | 30.7 ± 9.4 µM |  |  |  |  |  | 
6 | Nc1nc2c(ncn2[C@@H]2O[C@H](COP(=O)(O)OP(=O)(O)OP(=O)(O)O)C[C@H]2O)c(=O)[nH]1 [3'dGTP, reference compound] | > 100 µM | 0.27 µM | > 100 µM |  | 0.62 µM | non-competitive | competitive |  |  | 0.52 µM | 0.513 µM |  | 0.79 ± 0.2 µM | retained the same IC50 | 0.71 ± 0.2 µM | 0.74 ± 0.26 µM | 0.44 ± 0.02 µM | retained the same IC50 | 0.43 ± 0.29 µM
7 | O=C(O)Cc1cc(CC(=O)O)cc(-c2ccc(Cl)s2)c1 [Compound 11] | > 100 µM | 10.7 µM | > 100 µM |  | 39.7 µM |  |  |  |  | 7.1 µM |  |  |  |  |  |  |  |  | 
